Reference: PubChem BioAssay AID179 (DTP/NCI, 2004)
Values joined by “and” are separate entries in the source; they are usually repeats but may differ in a detail not shown here. Identical values can stand only once. Active and inactive are the calls of the source.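 The calls were made as follows: active = compounds giving half or more protection of infected cells from virus-caused growth loss, again on retest; inactive = the rest.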

Test system: CEM cells HIV-1 protection, formazan growth assay
Experiment: NCI AIDS Antiviral Assay
Conditions: for IC50: measured here: growth of uninfected CEM cells
How it was run: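 Soluble formazan readout of cell growth; CEM cells ± HIV-1; 5 drug concs. ≥50% protection → retest; ≥50% again = moderately active; reproducible 100% = confirmed active.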

## Nc1ncnc2c1ncn2C1OC(CO)C(O)C1O (stereo unspecified)
  outcome: inactive

## c1ccc(N2CCN(CCCN3CCc4c([nH]c5ccccc45)C3c3cccnc3)CC2)cc1 (stereo unspecified)
  EC50: > 2.19 µM
  IC50: > 2.19 µM

## N#C/C(=C\N1CCNC1=S)c1nc2ccccc2s1
  EC50: > 200 µM
  IC50: > 200 µM

## CN(C)c1nn2c(-c3ccccc3)nnc2s1
  outcome: inactive

## CC1C(O)=C(O)c2ccccc2N1O (stereo unspecified)
  EC50: > 490 µM
  IC50: 87.1 µM

## CCCc1cc(=O)oc2c3c(c4c(c12)OC(C)(C)C=C4)O[C@H](C)[C@@H](C)[C@@H]3OC(=O)CCl
  EC50: 4.57 µM
  IC50: 15.8 µM

## CCOC(=O)/C(=C/n1c(=S)[nH]c2ccc([N+](=O)[O-])cc21)C(=O)c1ccccc1
  EC50: > 200 µM
  IC50: 141 µM

## CCOC(=O)c1c(SC(=O)c2ccc(C(C)(C)C)cc2)n(-c2ccccc2)c(=S)n(-c2ccccc2)c1=O
  EC50: > 200 µM
  IC50: 27.5 µM

## O=c1n(CC2CO2)c(=O)n(CC2CO2)c(=O)n1CC1CO1 (stereo unspecified)
  EC50: > 832 µM
  IC50: 1.51 µM

## CN1CNC2C(=O)CCC2c2ccccc21 (stereo unspecified)
  EC50: > 1150 µM
  IC50: 676 µM

## CC(=O)[O-].COc1cccc(/C=N\[N-]C(=O)c2ccncc2)c1.[Co+2].[OH3+].[OH3+].c1ccncc1
  EC50: > 100 µM
  IC50: 57.5 µM

## CCCCC(CC)CCC(CCC(CC)CCCC)S(=O)(=O)O (stereo unspecified)
  EC50: > 200 µM
  IC50: > 200 µM

## CCOC(=O)C(=Cc1cc(OC)ccc1OC)C(=O)OCC
  EC50: > 117 µM
  IC50: 18.2 µM

## O=c1n(CCCCn2c(=O)n(CC3CS3)c3ccccc32)c2ccccc2n1CC1CS1 (stereo unspecified)
  EC50: > 28.8 µM
  IC50: 9.12 µM

## NCCCNCCCCN(CCCN)/[N+]([O-])=N\O
  EC50: > 6030 µM
  IC50: 145 µM

## COC(=O)C1=C(C(=O)OC)SC(=C(Br)C(=C2SC(C(=O)OC)=C(C(=O)OC)S2)C(=C2SC(C(=O)OC)=C(C(=O)OC)S2)C(Br)=C2SC(C(=O)OC)=C(C(=O)OC)S2)S1
  EC50: > 2.51 µM
  IC50: > 2.51 µM

## CC1=C[C@H]2C[C@@]3(C)O[C@@H]([C@]4(C)CC[C@H]([C@@H](C)C(=O)O)OO4)CC3C(C)(C)[C@H]2CC1 (stereo partly specified)
  outcome: inactive

## CCOC(=O)/C(=C/c1ccc(F)cc1)C(=O)c1ccccc1
  EC50: > 17.4 µM
  IC50: > 17.4 µM

## CCN(CC)c1ccc2c(C)cc(=O)oc2c1
  EC50: > 219 µM
  IC50: 105 µM

## O=S(=O)(O)c1ccc(N=Nc2ccc(N=Nc3c(S(=O)(=O)O)cc4cc(S(=O)(=O)O)cc(O)c4c3O)cc2)cc1
  outcome: inactive

## CCC1(CC)C(=O)N(C(=O)c2cc(OC)c(OC)c(OC)c2)N(C(=O)c2cc(OC)c(OC)c(OC)c2)C1=O
  EC50: > 200 µM
  IC50: 10.7 µM

## O=c1cc(-c2ccccc2)oc2ccc(-c3ccc4oc(-c5ccccc5)cc(=O)c4c3)cc12
  EC50: > 200 µM
  IC50: 27.5 µM

## CS(=O)(=O)CC(Cc1ccccc1)C(=O)O (stereo unspecified)
  outcome: inactive

## CCC(=O)O[C@@H]1C2C(OC(C)=O)C34COC(C)([C@@H]3C3C(C[C@]3(C)OC(C)=O)[C@@H](OC(=O)c3ccccc3)C4=O)[C@H](OC(C)=O)[C@@]2(OC(C)=O)C[C@@H]1C (stereo partly specified)
  EC50: > 10 µM
  IC50: > 10 µM

## O=[N+]([O-])c1cc(C(F)(F)F)ccc1S(=O)(=O)c1ccccc1
  EC50: > 77.6 µM
  IC50: 3.89 µM and 1.26 µM

## CC(=O)C(N=Nc1nccs1)C(C)=O
  EC50: > 200 µM
  IC50: 55 µM

## CN(C)c1ccc(C=C2C(=O)c3ccccc3C2=O)cc1
  outcome: inactive

## Cc1ccc(S(=O)(=O)NNS(C)(=O)=O)cc1
  EC50: > 955 µM
  IC50: 646 µM

## O=S1(=O)C=C2CCCCC21 (stereo unspecified)
  EC50: > 1580 µM
  IC50: > 1580 µM

## O=C(O)[C@@H]1CSC(c2ccncc2)N1 (stereo partly specified)
  EC50: > 200 µM
  IC50: > 200 µM

## C/C(CC(=O)N(C(C)C)C(C)C)=N\NC(=O)c1ccncc1
  EC50: > 61.7 µM
  IC50: > 61.7 µM

## O=C1CCCCCCCCCCC(=O)N2CCOCCOCCN1Cc1cccc(n1)C2
  EC50: > 407 µM
  IC50: 316 µM

## Cc1ccccc1NC(=O)CC(=O)NNC(Sc1ccccc1)c1cc(N=Nc2ccc(Br)cc2)ccc1O (stereo unspecified)
  EC50: > 100 µM
  IC50: 1.23 µM

## COc1ccc(/C=C/C(=O)c2sc(-c3cccnc3)nc2C)cc1
  EC50: > 21.4 µM
  IC50: > 21.4 µM

## Cc1ccc(S(=O)(=O)/N=S(\C)c2ccc(Cl)cc2)cc1 (stereo unspecified)
  EC50: > 759 µM
  IC50: 178 µM

## Cn1cnc([N+](=O)[O-])c1Sc1nncc2[nH]cnc12
  EC50: 46.8 µM
  IC50: > 200 µM

## COc1ccc(CC(=O)c2cc(OC)c(OC)cc2C)cc1OC
  EC50: > 398 µM
  IC50: 30.9 µM

## CCOC(=O)C1C2CCC(O2)C1C(=O)O (stereo unspecified)
  EC50: > 200 µM
  IC50: 21.4 µM

## COc1c2c3c(ccnc3c3ccccc13)C(=O)N2C
  EC50: > 200 µM
  IC50: 9.55 µM

## O=C1C(=C2SC(c3ccccc3)(c3ccccc3)c3ccccc32)C(=O)c2ccccc21
  EC50: > 200 µM
  IC50: > 200 µM

## COc1ccc(CCCCl)c(C2=NCCc3cc(OC)c(OC)cc32)c1
  EC50: > 200 µM
  IC50: 36.3 µM

## CC1(C)CCc2cc3c(cc2O1)OCC1c2cc(O)c(OCc4ccccc4)cc2OC31 (stereo unspecified)
  EC50: > 200 µM
  IC50: 23.4 µM

## C[N+](C)(C)c1ccc2c(c1)N(S(C)(=O)=O)CC2CCl (stereo unspecified)
  outcome: inactive

## Cc1cc(C)c(S(=O)(=O)Sc2nnnn2C)c(C)c1
  EC50: > 603 µM
  IC50: 126 µM

## COc1cccc2ccc3c(c12)C(=O)OC31CCc2c(C)cccc21 (stereo unspecified)
  outcome: inactive

## COc1c(C)c(C/C=C(\C)CC/C=C(\C)CC/C=C(\C)CCC=C(C)C)c(OC)c2ccccc12
  EC50: > 200 µM
  IC50: 107 µM

## N#C/C(=C/c1ccc2c(c1)OCO2)C(=O)c1ccccc1
  EC50: > 36.3 µM
  IC50: > 36.3 µM

## CCCCCCC1N(Cc2ccc(Cl)cc2)CCCN1Cc1ccc(Cl)cc1
  EC50: > 200 µM
  IC50: 12 µM

## CCc1cc(-c2ccc(OC)cc2)c(C#N)c(=S)n1C1OC(CO)C(O)C(O)C1O (stereo unspecified)
  EC50: > 200 µM
  IC50: 126 µM

## COc1ccc(N2C(=O)[C@@H]3[C@H](C2=O)c2[nH]c4ccccc4c2C2CCC(C(C)(C)C)C[C@@H]23)cc1 (stereo partly specified)
  EC50: > 28.2 µM
  IC50: > 28.2 µM

## CN(C)CC(C)(C)C(=O)/C=C/c1ccccc1
  outcome: inactive

## NC(=O)CSc1c2cc(O)ccc2nc2ccc(O)cc12
  EC50: > 200 µM
  IC50: 36.3 µM

## O=C(CCC(=O)CC(O)(C(F)(F)F)C(F)(F)F)CC(O)(C(F)(F)F)C(F)(F)F
  EC50: > 200 µM
  IC50: 47.9 µM

## COc1ccc2c(c1OC)Oc1c(OC)ccc3c1C(C2)N(C)C[C@@H]3O (stereo partly specified)
  EC50: > 251 µM
  IC50: > 251 µM

## Nc1ccc2cc(S(=O)(=O)O)cc(O)c2c1N=Nc1ccc(NC(=O)c2ccc(C(=O)Nc3ccc(N=Nc4c(N)ccc5cc(S(=O)(=O)O)cc(O)c45)c(S(=O)(=O)O)c3)cc2)cc1S(=O)(=O)O
  outcome: active

## NS(=O)(=O)c1ccc(NC(=S)/N=C/c2c(O)c3ccccc3[nH]c2=O)cc1
  EC50: > 200 µM
  IC50: > 200 µM

## O=C(/C=C/c1ccccc1)CSc1ncn[nH]1
  EC50: > 200 µM
  IC50: 12 µM

## CN(NC(=O)CCCl)C1=NCCN1
  EC50: > 200 µM
  IC50: > 200 µM

## CC(=O)Nc1cc2ccc(C)nc2c2nc(C)ccc12
  EC50: > 200 µM
  IC50: > 200 µM

## CCN1CCC(O)(/C=C/c2ccc(Cl)cc2)C(C(=O)/C=C/c2ccc(Cl)cc2)C1 (stereo unspecified)
  EC50: > 21.4 µM
  IC50: > 21.4 µM

## Cc1ccc(S(=O)(=O)OC2CSSCC2OS(=O)(=O)c2ccc(C)cc2)cc1 (stereo unspecified)
  outcome: inactive

## CC1=NN(c2ccccc2)C(=O)C1N=Nc1ccc(S(=O)(=O)Nc2nccc(C)n2)cc1 (stereo unspecified)
  outcome: inactive

## O=C1C(Br)=C(Br)C(=O)c2ccc(=O)ccc21
  EC50: > 55 µM
  IC50: 9.77 µM

## C/C(=N\OC(=O)Nc1ccccc1)c1ccccc1
  EC50: > 200 µM
  IC50: 132 µM

## Nc1cccc2c1C(=O)c1cccc(NC(=O)c3ccc4c5c(nsc35)-c3ccccc3C4=O)c1C2=O
  EC50: > 15.5 µM
  IC50: > 15.5 µM

## COc1cccc(C2SCc3nc4ccccc4n32)c1 (stereo unspecified)
  outcome: inactive

## CN(C(=O)C12C3C4C1C1C2C3C41C#N)C(C)(C)C (stereo unspecified)
  EC50: > 41.7 µM
  IC50: > 41.7 µM

## O=C(O)CSCCOCCSCC(=O)O
  EC50: > 708 µM
  IC50: > 708 µM

## CCN(CC)C(=O)C(C)n1cc(C)c(=O)[nH]c1=O (stereo unspecified)
  EC50: > 977 µM
  IC50: > 977 µM

## O=C1CSC2=NC3=C(CSC/C3=C\c3ccc(Cl)cc3)C(c3ccc(Cl)cc3)N12 (stereo unspecified)
  EC50: > 200 µM
  IC50: 9.77 µM

## COC(=O)[C@H]1ON2O[C@@H](O[C@H]3CCCC[C@@H]3C(C)(C)c3ccccc3)C[C@@H]3CC[C@H]1[C@@]32C
  EC50: > 200 µM
  IC50: > 200 µM

## Cc1cc(O)c2c(c1)C([C@]13Cc4cc(O)c5c(c4[C@H]1C=C[C@@H](O)C3O)C(=O)c1c(O)ccc(O)c1C5=O)OC2=O (stereo partly specified)
  EC50: > 6.61 µM
  IC50: > 6.61 µM

## COc1ccc(C2OC(=O)c3ccccc32)c2ccccc12 (stereo unspecified)
  EC50: > 46.8 µM
  IC50: > 46.8 µM

## COC(=O)C(NC(=O)C(CC(=O)OC(C)(C)C)NC(=O)OC(C)(C)C)C(O)c1ccccc1 (stereo unspecified)
  EC50: > 200 µM
  IC50: > 200 µM

## S=C(Nc1ccccc1)Nc1ccccc1S
  EC50: > 200 µM
  IC50: 112 µM

## Nc1ccc([C@H]2C(=O)N[C@H]3CCC[C@H]32)cc1
  EC50: > 417 µM
  IC50: > 417 µM

## CN(C)CC/C(=N\Nc1ccc(Cl)c(Cl)c1)c1ccccc1
  outcome: inactive

## CCC[CH2][Sn]([CH2]CCC)([O]C(=O)c1c(F)cccc1F)[O]C(=O)c1c(F)cccc1F
  EC50: > 9.55 µM
  IC50: 1.91 µM

## CC1c2[nH]c3ccccc3c2CCN1O (stereo unspecified)
  outcome: inactive

## O=C1C(=O)C(Br)(Br)C(Br)=C1Br
  outcome: inactive

## C=CC[C@@H]1C(=O)[C@@]2(O[Si](C(C)C)(C(C)C)C(C)C)CC[C@@H]1C[C@H]2NC(=O)OCC(Cl)(Cl)Cl
  EC50: > 200 µM
  IC50: > 200 µM

## CN1CCC(O)C(CNC23CC4CC(CC(C4)C2)C3)C1 (stereo unspecified)
  EC50: 97.7 µM
  IC50: 178 µM

## CN(C)/C=C/c1nnnn1-c1ccc(I)cc1
  EC50: > 200 µM
  IC50: 33.1 µM

## Cc1nn(C(=O)c2ccccc2O)c2c1C(c1ccco1)SC(N)=N2 (stereo unspecified)
  EC50: > 20 µM
  IC50: 1.23 µM

## O=C(OCCC[P+](c1ccccc1)(c1ccccc1)c1ccccc1)c1ccccc1
  EC50: > 200 µM
  IC50: 3.39 µM

## CCOC(=O)c1ccc(Nc2cnc3ccc(C(F)(F)F)cc3n2)cc1
  EC50: > 200 µM
  IC50: 10.7 µM
